Data set [1] has as its system promastigotes of Leishmania (V.) braziliensis strain MHOM/CO/87/UA301. Description: MTT viability of L. braziliensis promastigotes. Type of data set: cell-based.
Description: Promastigotes of Leishmania (V.) braziliensis strain MHOM/CO/87/UA301 were isolated from footpad lesions in Balb/C mice previously infected. In the process of maintenance and differentiation of the parasites, the LTI medium (tryptose 15 g/L, yeast extract 5 g/L, liver extract 2 g/L, hemin-NaOH 0.02 g/L, glucose 4 g/L, NaCl 9 g/L, KCl 0.4 g/L Na2HPO4, 7.5 g/L at pH 7.4) supplemented with 10% fetal calf serum and maintained at 29 °C was used.
Briefly, 96-well plates were used, where 2 × 10^6 parasites/mL were seeded. A concentration of 50 μM was used for each compound and an incubation time of 96 h at 29 °C. 3-(4,5-dimethylthiazol-2-yl)-2,5-diphenyl tetrazolium bromide (MTT) 1 μg/mL was added and incubated in darkness for 4 h, acidic isopropanol (4N) was added and the plate was read at 570 nm in a spectrophotometer Synergy HT (Biotek). Miltefosine was used as a reference drug. The EC50 calculation of the selected compound was performed using growth curves. Direct counting was used to monitor the proliferation of parasites, three independent experiments were performed for each concentration of the compounds evaluated. The in vitro evaluations of compounds toxicity by MTT in VERO and BMDM cells follow a methodology described above with some modifications [60].
Data set [2] relates to epimastigotes of Trypanosoma cruzi strain MHOM/VE/92/YBM. Briefly: MTT viability of T. cruzi epimastigotes. The data set is classed as cell-based.
The test system of data set [3] is BMDM macrophages. Description: MTT cytotoxicity on BMDM macrophages. Type of data set: cell-based. The conditions noted are these: Mus musculus, 72 h. The source says: T. cruzi epimastigotes MHOM/VE/92/YBM venezuelan strain were used to test the anti T. cruzi in vitro studies. The strain was maintained in a modified LIT medium with 10% fetal bovine serum (FBS). Mouse bone marrow was used to obtain BMDM macrophages. Mouse fibroblast-conditioned medium L-929 was used for the differentiation and maintenance of BMDM macrophages. We evaluated through a colorimetric method the effect of compounds 8–23 on the promastigotes of L. brasiliensis. Briefly, 96-well plates were used, where 2 × 10^6 parasites/mL were seeded. A concentration of 50 μM was used for each compound and an incubation time of 96 h at 29 °C. 3-(4,5-dimethylthiazol-2-yl)-2,5-diphenyl tetrazolium bromide (MTT) 1 μg/mL was added and incubated in darkness for 4 h, acidic isopropanol (4N) was added and the plate was read at 570 nm in a spectrophotometer Synergy HT (Biotek). Miltefosine was used as a reference drug. The EC50 calculation of the selected compound was performed using growth curves. Direct counting was used to monitor the proliferation of parasites, three independent experiments were performed for each concentration of the compounds evaluated. The in vitro evaluations of compounds toxicity by MTT in VERO and BMDM cells follow a methodology described above with some modifications. The selectivity index was calculated with SI = CC50/EC50, where CC50 was the maximum concentration range of compounds 10, 21–23 used to evaluate cytotoxicity in VERO and BMDM cells. The trypanocidal activity of compounds 8–23 was evaluated on the viability of T. cruzi epimastigotes through a colorimetric method adapted with minor modifications. 2 × 10^6 parasites/mL were seeded in a 96-well plate, adding 50 μM of each derivative dissolved in DMSO (final concentration remained below 1%). The plate was incubated for 96 h at 29 °C. Then, 1 μg/mL of 3-(4,5-dimethylthiazol-2-yl)-2,5-diphenyl tetrazolium bromide (MTT) was added and incubated in darkness for 4 h. After this time, acidic isopropanol (4N) was added and the plate was read at 570 nm in a spectrophotometer Synergy HT (Biotek). Benznidazole was used as a reference drug. The in vitro evaluations of compounds toxicity by MTT in VERO and BMDM cells follow a methodology described above with some modifications. Cells were counted in suspension and seeded at 20 × 10^3 cells/well. The test was carried out in triplicate on 96-well microplates in different concentrations: 50 μM, 100 μM, 200 μM and 300 μM, untreated cells and reference drug (benznidazole) controls.

Data set [4] has as its system CCRF-CEM. Description: MTS antiproliferative assay CCRF-CEM. The conditions noted are these: Homo sapiens, 72 h of incubation. The data set is classed as cell-based.
The subject of data set [5] is CEM-DNR. Description: MTS antiproliferative assay CEM-DNR. The data set is classed as cell-based. The conditions noted are these: Homo sapiens, 72 h of incubation, daunorubicin-resistant. In general terms: Tetrazolium assays rely on reduction of a dye to a coloured formazan, in cell work by metabolically active cells.
Data set [6] deals with K562. Briefly: MTS antiproliferative assay K562. As to conditions: for IC50: 72 h of incubation. The data set is classed as cell-based, human.
For data set [7], the system named is K562-TAX. Description: MTS antiproliferative assay K562-TAX. Type of data set: cell-based, human. As to conditions: 72 h of incubation, paclitaxel-resistant.
The subject of data set [8] is HCT116p53−/−. Briefly: MTS antiproliferative assay HCT116p53-/-. The data set is classed as cell-based. The conditions noted are these: Homo sapiens; 72 h of incubation.
Data set [9] concerns BJ. Briefly: MTS assay on non-malignant BJ. The data set is classed as cell-based. The conditions noted are these: noncancerous human cell line.
Data set [10] concerns K562 cell line. Briefly: Annexin V-FITC/PI flow cytometry apoptosis assay K562. The data set is classed as cell-based, human. The conditions noted are these: 24 h. The method, then: Cell death was assessed after 24 h incubation with compounds 18 and 22. Apoptosis was analyzed by flow cytometry using annexin V-FITC and propidium iodide (PI). Early apoptosis was defined by annexin V-FITC expression and, necrosis by PI expression, late apoptosis by coexpression of annexin V/PI. Doxorubicin and quercetin were used as positive controls. The results of a typical flow cytometry analysis of both compounds are illustrated in Figure 2 and Figure 3. An increase in early apoptosis and late apoptosis was observed; necrosis was less predominant. The results are summarized in Tables S1 and S2 (Supplementary Materials). The expression of annexin V was different depending on the compound used. K562, A549 cell lines were treated as described by the manufacturer (Santa Cruz Biotechnology), washed, and resuspended in annexin V binding buffer (0.01 M HEPES, 0.14 M NaCl, and 2.5 mM CaCl2) with the subsequent incubation of annexinV-FITC and then PI. An Epics XL cytometer (Beckman Coulter, Indianapolis, IN, USA) was used for the analysis. Untreated cells were the negative controls, and doxorubicin (Dox) (1 μM), and quercetin (QC) (50 μM) were the positive controls. Early apoptosis refers to annexin V expression, late apoptosis, the coexpression of annexin V and PI, and necrosis the sole expression of PI. […] The experiments were performed as described before. To avoid the unwanted effects of DMSO, the concentrations of the compounds were never higher than 100 μM.
(A flow cytometer gives signals particle by particle.)

The term EC50 denotes the concentration needed to bring the measured effect to its halfway point. As usually defined, the IC50 is the point on the concentration scale where inhibition reaches its midpoint. The low end stands for greater potency in that assay, the high end for weaker potency in that assay.

For `COc1ccc2c(c1)CC/C(=C\c1cccnc1Oc1ccc(Cl)cc1)C2=O` [Compound 22, (E)-2-{[2-(4-Chlorophenoxy)pyridin-3-yl]methylene}-3,4-dihydro-6-methoxynaphthalen-1(2H)-one], the EC50 in data set [1] (72 h, promastigotes) was found to be 12.4 ± 1.15 µM; in [2] (Trypanosoma cruzi, 72 h, epimastigotes), 5.03 ± 0.49 µM; in [3], 468 µM. In data set [1] (SI = CC50/EC50), the “SIB/Lb selectivity index on L. braziliensis/BMDM” value is 38. Also, the “SIV/Tc selectivity index on T. cruzi/VERO” value in data set [2] (SI = CC50/EC50) turned out to be 20. For the same compound, the “selectivity index T. cruzi vs BMDM (CC50/EC50)” value in [2] (SI = CC50/EC50) was determined as 93. In addition, the IC50 is 5.23 ± 0.3 µM in [4]; 22.5 ± 4.77 µM in data set [5]; 3.91 ± 0.14 µM in [6]; 3.91 to 4.33 µM in [6] (Homo sapiens, K562, 72 h); 21.4 ± 4.08 µM in [7]; over 21.4 µM in data set [7] (Homo sapiens, K562-Tax, 72 h). For the same compound, the IC50 was 33.9 ± 5.63 µM in [8] and over 50 µM in [9]. Further, in [6] (ratio of IC50 values), the “times higher cytotoxicity against K562 than K562-TAX” value worked out at 5.5 times. Further, the “AV+/IP+ (late apoptosis)” value in data set [10] (K562, 5 µM) is 1.85%; in data set [10] (K562, 10 µM), 77.70%. Also, the “AV+/IP- (early apoptosis)” value in data set [10] (K562, 5 µM) came to 20.90%; in data set [10] (K562, 10 µM) it was 21.80%. In addition, the “AV-/IP+ (necrosis)” value in data set [10] (K562, 5 µM) amounted to 0.44%; in data set [10] (K562, 10 µM), 0.29%. Also, the “annexin V-FITC expression” value in [10] (K562, 10 µM) is “higher than 50%”.

The values above are taken from publication PMC9457600, “Synthesis, Leishmanicidal, Trypanocidal, Antiproliferative Assay and Apoptotic Induction of (2-Phenoxypyridin-3-yl)naphthalene-1(2H)-one Derivatives” (Molecules, 2022).
